Data as given in ChEMBL document CHEMBL1142181, “Quantitative immunoassay to measure plasma and intracellular atazanavir levels: analysis of drug accumulation in cultured T cells” (Antimicrob Agents Chemother, 2007).

Assays:
Type in all cases: ADME, cell-based
[1] = Intracellular drug level in CEM CCL19 cells at 20 ug/ml after 24 hrs; conditions: human, ccrf-cem
PBMC [2] = assay: Intracellular drug level in human PBMC at 0.2 ug/ml after 24 hrs
PBMC [3] = assay: Intracellular drug level in human PBMC at 2 ug/ml after 24 hrs
PBMC [4] = assay: Intracellular drug level in human PBMC at 20 ug/ml after 24 hrs
[5] = Increase in accumulation of the drug in CEM CCL19 cells in presence of 50 uM Verapamil relative to control; conditions: human, ccrf-cem
[6] = Increase in accumulation of the drug in CEM CCL19 cells in presence of 50 uM Probenecid relative to control; conditions: human, ccrf-cem
[7] = Decrease in accumulation of the drug in CEM CCL19 cells in presence of 28 uM Nevirapine relative to control; design: scale not given: the % may be the effect or the level left; conditions: human, ccrf-cem
[8] = Ratio of intracellular drug level to extracellular drug level in CEM CCL19 cells at 0.2 ug/ml after 24 hrs; conditions: human, ccrf-cem
[9] = Ratio of intracellular drug level to extracellular drug level in CEM CCL19 cells at 2 ug/ml after 24 hrs; conditions: human, ccrf-cem
[10] = Ratio of intracellular drug level to extracellular drug level in CEM CCL19 cells at 20 ug/ml after 24 hrs; conditions: human, ccrf-cem
PBMC [11] = assay: Ratio of intracellular drug level to extracellular drug level in human PBMC at 0.2 ug/ml after 24 hrs
PBMC [12] = assay: Ratio of intracellular drug level to extracellular drug level in human PBMC at 2 ug/ml after 24 hrs
PBMC [13] = assay: Ratio of intracellular drug level to extracellular drug level in human PBMC at 20 ug/ml after 24 hrs
[14] = Increase in accumulation of the drug in CEM CCL19 cells in presence of 50 uM Dipyridamole relative to control; conditions: human, ccrf-cem
[15] = Increase in accumulation of the drug in CEM CCL19 cells in presence of 24 uM Efavirenz relative to control; conditions: human, ccrf-cem
[16] = Intracellular drug level in CEM CCL19 cells at 2 ug/ml after 24 hrs; conditions: human, ccrf-cem
[17] = Intracellular drug level in CEM CCL19 cells at 0.2 ug/ml after 24 hrs; conditions: human, ccrf-cem

With COC(=O)N[C@H](C(=O)N[C@@H](Cc1ccccc1)[C@@H](O)CN(Cc1ccc(-c2ccccn2)cc1)NC(=O)[C@@H](NC(=O)OC)C(C)(C)C)C(C)(C)C [ATAZANAVIR] the Drug uptake [1] was 0.8423 µg/mL, the Drug uptake (PBMC [2]) was 3.838 µg/mL and the Drug uptake (PBMC [3]) was 5.409 µg/mL. It also gave a Drug uptake (PBMC [4]) of 12.048 µg/mL, an Activity [5] of 70% and an Activity [6] of 25%. It also gave an Activity [7] of 50%, a Ratio [8] of 0.44 and a Ratio [9] of 0.1. The Ratio [10] was 0.04, the Ratio (PBMC [11]) was 19.2 and the Ratio (PBMC [12]) was 2.7. For the same molecule, the Ratio (PBMC [13]) was 0.602, the Activity [14] was 125% and the Activity [15] was 125%. For the same molecule, the Drug uptake [16] was 0.2049 µg/mL and the Drug uptake [17] was 0.0887 µg/mL.
